Where a name gives a salt, the structure may show the parent alone.
System: TNF production by monocytes activated with bacterial lipopolysaccharide (LPS)
Assay: Lipopolysaccharide-activated monocyte TNF production assay
Type: cell-based, human
Details: Homo sapiens, Monocyte, TNF in supernatant by ELISA, read-out: IC50 values in the monocyte assay (LPS induced TNF release)
Procedure: Lipopolysaccharide-activated Monocyte TNF Production Assay
Test compounds were evaluated in vitro for the ability to inhibit the production of TNF by monocytes activated with bacterial lipopolysaccharide (LPS). Fresh residual source leukocytes (a byproduct of plateletpheresis) were obtained from a local blood bank, and peripheral blood mononuclear cells (PBMCS) were isolated by density gradient centrifugation on Ficol-Paque Plus (Pharmacia). PBMCs were suspended at 2×10^6/ml in DMEM supplemented to contain 2% FCS, 10 mM, 0.3 mg/ml […], 100 U/ml penicillin G and […] streptomycin sulfate (complete media). Cells were plated into Falcon flat bottom, 96 well culture plates (200 μl/well) and cultured overnight at 37° C. and 6% CO2. Non-adherent cells were removed by washing with 200 μl/well of fresh medium. Wells containing adherent cells (˜70% monocytes) were replenished with 100 μl of fresh medium.
Preparation of Test Compound Stock Solutions
Test compounds were dissolved in […]. Compound stock solutions were prepared to an initial concentration of […]. Stocks were diluted initially to 20-200 μM in complete media. Nine two-fold serial dilutions of each compound were then prepared in complete medium.
Treatment of Cells with Test Compounds and Activation of TNF Production with Lipopolysaccharide
One hundred microliters of each test compound dilution were added to microtiter wells containing adherent monocytes and 100 μl complete medium. Monocytes were cultured with test compounds for 60 min at which time 25 μl of complete medium containing 30 ng/ml lipopolysaccharide from E. coli K532 were added to each well. Cells were cultured an additional 4 hrs. Culture supernatants were then removed and TNF presence in the supernatants was quantified using an ELISA.
Flat bottom, 96 well Corning High Binding ELISA plates were coated overnight (4° C.) with 150 μL/well of 3 μg/ml murine anti-human TNF-α MAb (R&D Systems #MAB210). Wells were then blocked for 1 hr at room temperature with 200 μL/well of CaCl2-free ELISA buffer supplemented to contain 20 mg/ml BSA (standard ELISA buffer: […], 150 mM NaCl, 2 mM CaCl2, 0.15 mM thimerosal, pH 7.4). Plates were washed and replenished with 100 μl of test supernatants (diluted 1:3) or standards. Standards consisted of eleven 1.5-fold serial dilutions from a stock of 1 ng/ml recombinant human TNF (R&D Systems). Plates were incubated at room temperature for 1 hr on orbital shaker (300 rpm), washed and replenished with 100 μl/well of 0.5 μg/ml goat anti-human TNF-α (R&D systems #AB-210-NA) biotinylated at a 4:1 ratio. Plates were incubated for 40 min, washed and replenished with 100 μl/well of alkaline phosphatase-conjugated streptavidin (Jackson ImmunoResearch #016-050-084) at 0.02 μg/ml. Plates were incubated 30 min, washed and replenished with 200 μl/well of 1 mg/ml of p-nitrophenyl phosphate. After 30 min, plates were read at 405 nm on a Vmax plate reader.
Standard curve data were fit to a second order polynomial and unknown TNF-α concentrations determined from their OD by solving this equation for concentration. TNF concentrations were then plotted vs. test compound concentration using a second order polynomial. This equation was then used to calculate the concentration of test compounds causing a 50% reduction in TNF production.

Molecule | IC50
Fc1ccc(-c2cnc(Cc3c(Cl)cccc3Cl)nc2-c2ccncc2)cc1 [Example 1-8, 2-(2,6-Dichlorobenzyl)-5-(4-fluorophenyl)-4-(4-pyridyl)-pyrimidine] | ≤ 20 µM
Fc1ccc(-c2cnc(CSc3ccccc3)nc2-c2ccncc2)cc1 [Example 1-10, 5-(4-Fluorophenyl)-2-phenylthiomethyl-4-(4-pyridinyl)-pyrimidine] | ≤ 20 µM
Fc1ccc(-c2cnc(-c3cccs3)nc2-c2ccncc2)cc1 [Example 1-18, 5-(4-Fluorophenyl)-4-(4-pyridyl)-2-(2-thienyl)-pyrimidine] | ≤ 20 µM
CCN(CC)CCNc1ncc(-c2ccc(F)cc2)c(-c2ccncc2)n1 [Example 1-22, 2-(2-Diethylaminoethylamino)-5-(4-fluorophenyl)-4-(4-pyridyl)-pyrimidine] | ≤ 20 µM
Fc1ccc(-c2cnc(Nc3c(Cl)cccc3Cl)nc2-c2ccncc2)cc1 [Example 1-24, 2-(2,6-Dichlorophenylamino)-5-(4-fluorophenyl)-4-(4-pyridyl)-pyrimidine] | ≤ 20 µM
Cc1cccc(C)c1Nc1ncc(-c2ccc(F)cc2)c(-c2ccncc2)n1 [Example 1-25, 2-(2,6-Dimethylphenylamino)-5-(4-fluorophenyl)-4-(4-pyridyl)-pyrimidine] | ≤ 20 µM
Fc1ccc(Nc2ncc(-c3ccc(F)cc3)c(-c3ccncc3)n2)cc1 [Example 1-27, 5-(4-Fluorophenyl)-2-(4-fluorophenylamino)-4-(4-pyridyl)-pyrimidine] | ≤ 20 µM
Fc1ccc(-c2cnc(N3CCOCC3)nc2-c2ccncc2)cc1 [Example 1-33, 5-(4-Fluorophenyl)-2-morpholino-4-(4-pyridyl)-pyrimidine] | ≤ 20 µM
NCCCCNc1ncc(-c2ccc(F)cc2)c(-c2ccncc2)n1 [Example 2-3, 2-(4-Aminobutylamino)-5-(4-fluorophenyl)-4-(4-pyridyl)-pyrimidine hydrochloride] | ≤ 20 µM
Fc1ccc(-c2cnc(NCCc3ccc(Br)cc3)nc2-c2ccncc2)cc1 [Example 2-10, 2-(2-(4-Bromophenyl)-ethylamino)-5-(4-fluorophenyl)-4-(4-pyridyl)-pyrimidine] | ≤ 20 µM
Nc1ccc(CCNc2ncc(-c3ccc(F)cc3)c(-c3ccncc3)n2)cc1 [Example 2-12, 2-(2-(4-Aminophenyl)-ethylamino)-5-(4-fluorophenyl)-4-(4-pyridyl)-pyrimidine] | ≤ 20 µM
COc1ccccc1CCNc1ncc(-c2ccc(F)cc2)c(-c2ccncc2)n1 [Example 2-15, 5-(4-Fluorophenyl)-2-(2-(2-methoxyphenyl)-ethylamino)-4-(4-pyridyl)-pyrimidine] | ≤ 20 µM
COc1cccc(CCNc2ncc(-c3ccc(F)cc3)c(-c3ccncc3)n2)c1 [Example 2-18, 5-(4-Fluorophenyl)-2-(2-(3-methoxyphenyl)-ethylamino)-4-(4-pyridyl)-pyrimidine] | ≤ 20 µM
CC(CCc1ccccc1)Nc1ncc(-c2ccc(F)cc2)c(-c2ccncc2)n1 (centres unmarked) [Example 2-23, 5-(4-Fluorophenyl)-2-((1-methyl-3-phenylpropyl)-amino)-4-(4-pyridyl)-pyrimidine] | ≤ 20 µM
Fc1ccc(-c2cnc(NCCCCc3ccccc3)nc2-c2ccncc2)cc1 [Example 2-25, 5-(4-Fluorophenyl)-2-((4-phenyl-n-butyl)-amino)-4-(4-pyridyl)-pyrimidine] | ≤ 20 µM
Fc1ccc(-c2cnc(NCCN3CCOCC3)nc2-c2ccncc2)cc1 [Example 2-30, 5-(4-Fluorophenyl)-2-(2-morpholinoethylamino)-4-(4-pyridyl)-pyrimidine] | ≤ 20 µM
Fc1ccc(-c2cnc(NCCN3CCCCC3)nc2-c2ccncc2)cc1 [Example 2-31, 5-(4-Fluorophenyl)-2-(2-piperidinoethylamino)-4-(4-pyridyl)-pyrimidine] | ≤ 20 µM
Fc1ccc(-c2cnc(NCCN3CCCC3)nc2-c2ccncc2)cc1 [Example 2-32, 5-(4-Fluorophenyl)-4-(4-pyridyl)-2-(2-pyrrolidinoethylamino)-pyrimidine] | ≤ 20 µM
O=C1CCCN1CCCNc1ncc(-c2ccc(F)cc2)c(-c2ccncc2)n1 [Example 2-34, 5-(4-Fluorophenyl)-2-(3-(2-pyrrolidinon-1-yl)-propylamino)-4-(4-pyridyl)-pyrimidine] | ≤ 20 µM
O=c1[nH]c(Cc2c(Cl)cccc2Cl)nc(-c2ccncc2)c1-c1ccc(F)cc1 [Example 4-3, 2-(2,6-Dichlorobenzyl)-5-(4-fluorophenyl)-6-(4-pyridyl)-4(3H)-pyrimidinone] | ≤ 20 µM
O=c1[nH]c(SCCOc2ccccc2)nc(-c2ccncc2)c1-c1ccc(F)cc1 [Example 5-3, 5-(4-Fluorophenyl)-2-(2-phenoxyethyl)thio-6-(4-pyridyl)-4(3H)-pyrimidinone] | ≤ 20 µM
O=c1[nH]c(SCCNc2ccccc2)nc(-c2ccncc2)c1-c1ccc(F)cc1 [Example 5-4, 5-(4-Fluorophenyl)-2-(2-phenylaminoethyl)thio-6-(4-pyridyl)-4(3H)-pyrimidinone] | ≤ 20 µM
Fc1ccc(-c2cnc(-c3ccncc3)nc2-c2ccncc2)cc1 [Example 11, 5-(4-Fluorophenyl)-2,4-bis-(4-pyridyl)-pyrimidine] | ≤ 20 µM

Same assay, conditions: TNF in supernatant by ELISA, listed as 5-(4-Fluorophenyl)-2-(N-methyl-N-(2-phenylethyl)amino)-4-(4-pyridyl)-pyrimidine, read-out: IC50 values in the monocyte assay (LPS induced TNF release)

Molecule | IC50
CN(CCc1ccccc1)c1ncc(-c2ccc(F)cc2)c(-c2ccncc2)n1 [Example 2-21, 5-(4-Fluorophenyl)-2-(methyl-(2-phenylethyl)-amino)-4-(4-pyridyl)-pyrimidine] | ≤ 5 µM

Same assay, conditions: TNF in supernatant by ELISA, read-out: IC50 values in the monocyte assay (LPS induced TNF release)

Molecule | IC50
5-(4-Fluorophenyl)-2-((3-imidazolylpropyl)-amino)-4-(4-pyridyl)-pyrimidine [Example 2-24] | ≤ 5 µM
Fc1ccc(CCNc2ncc(-c3ccc(F)cc3)c(-c3ccncc3)n2)cc1 [Example 2-8, 5-(4-Fluorophenyl)-2-(2-(4-fluorophenyl)-ethylamino)-4-(4-pyridyl)-pyrimidine] | ≤ 5 µM
Oc1ccc(CCNc2ncc(-c3ccc(F)cc3)c(-c3ccncc3)n2)cc1 [Example 2-11, 5-(4-Fluorophenyl)-2-(2-(4-hydroxyphenyl)-ethylamino)-4-(4-pyridyl)-pyrimidine] | ≤ 5 µM
Fc1ccc(-c2cnc(NCCc3ccccc3F)nc2-c2ccncc2)cc1 [Example 2-13, 5-(4-Fluorophenyl)-2-(2-(2-fluorophenyl)-ethylamino)-4-(4-pyridyl)-pyrimidine] | ≤ 5 µM
OC(CNc1ncc(-c2ccc(F)cc2)c(-c2ccncc2)n1)c1ccccc1 (centres unmarked) [Example 2-20, 5-(4-Fluorophenyl)-2-((2-hydroxy-2-phenyl)-ethylamino)-4-(4-pyridyl)-pyrimidine] | ≤ 5 µM
Fc1ccc(-c2cnc(NCCCc3ccccc3)nc2-c2ccncc2)cc1 [Example 2-22, 5-(4-Fluorophenyl)-2-((3-phenylpropyl)-amino)-4-(4-pyridyl)-pyrimidine] | ≤ 5 µM
O=c1[nH]c(NCCCc2ccccc2)nc(-c2ccncc2)c1-c1ccc(F)cc1 [Example 6-2, 5-(4-Fluorophenyl)-2-((3-phenylpropyl)-amino)-6-(4-pyridyl)-4(3H)-pyrimidinone] | ≤ 5 µM
CC(CCc1ccccc1)Nc1nc(-c2ccncc2)c(-c2ccc(F)cc2)c(=O)[nH]1 (centres unmarked) [Example 6-3, 5-(4-Fluorophenyl)-2-((1-methyl-3-phenylpropyl)-amino)-6-(4-pyridyl)-4(3H)-pyrimidinone] | ≤ 5 µM

Source: US6610698B2, “Substituted pyrimidine compounds and methods of use” (Amgen, Inc., priority 1996, dated 2003)
